In US6861524B2, “Acyl and sulfonyl derivatives of 6,9-disubstituted 2-(trans-1,4-diaminocyclohexyl)-purines and their use as antiproliferative agents” (Aventis Pharmaceuticals Inc., priority 2000, dated 2005):
Where “and” joins values, the source holds several entries; their conditions need not be identical. Equal values may be shown once. Where a name gives a salt, the structure may show the parent alone.

Key:
[1] = Plasma pharmacokinetics in mice after single intravenous cassette doses; details: mice; for Mean concentration in plasma: single 18 mg/kg intravenous cassette dose (Cassette #1)
Experimental: Male mice are given single intravenous cassette doses of CDK inhibitor compounds.
A single intravenous cassette dose (18 or 15 mg/kg free base) is administered. For each compound, this is equivalent to a dose of approx. 3 mg/kg free base. […] The dose is administered at a volume of 10 ml/kg (total volume of approximately 0.25 ml/animal).
Male mice (Hsd:ICR (CD-1® SD®), Harlan), each weighing approximately 20-30 g at the start of the study. […] Water is available ad libitum throughout the study.
A single cassette dose of 5-6 compounds is administered by bolus injection into the tail vein over a 10-15-second period. […] Whole blood (approximately 0.6 ml/sample) is obtained by cardiac puncture and transferred to 3 ml glass tubes containing 45 U sodium heparin.
Sample Processing: Plasma: Whole blood is centrifuged at approximately 3,200 rpm for 10 min at approximately 5° C. and the plasma (approx. 0.3 ml/sample) is transferred to chilled plastic vials and stored at approx. −70° C. until bioanalysis.
Sample Analysis: Concentrations of each test article in plasma are quantitated by a non-validated method based on LC/MS using the following protocol.
Samples are removed from the freezer, allowed to thaw at room temperature, and vortexed to insure complete homogenization prior to sample manipulation. Samples are then prepared according to the following scheme: • 1. transfer 48 μL of plasma (blank mouse sample) into a 12×75 mm test tube. • 2. add 12 μL of working standard to the blank plasma for standard curve preparation. • 3. […] Inject 25 μL on LC/MS. Chromatographic Conditions:
Data Analysis: Concentrations of Compounds in plasma of individual animals are determined by bioanalytics. […] Statistical analyses are limited to simple expressions of variation (mean and standard deviation). The plasma AUC (area-under-curve) is determined by the linear trapezoidal rule. […] All PK parameters are determined by noncompartmental methods using WinNonlin version 3.0 (Pharsight Corp).
The following information is based on a graph of the semi-log of the plasma concentration in ng/ml versus collection time in hours. • “Cmax” represents the maximum plasma concentration. • “t1/2” represents the half-life of the compound. • “AUC0-∞” represents the calculated area under the curve. • “AUC % Extrap(obs.)” represents the extrapolated area under the curve. • “Cls” is the clearance rate.

[2] = Red blood cell binding (RBC to plasma ratio), mouse whole blood; type: in vitro ADME; details: 30 minutes at 37° C., nominal 500 ng/ml
Experimental: (§1) Compounds, including one positive control, are assessed for red blood cell (RBC) uptake, using a modified procedure based on the protocol reported in Sun, J. X. S., et al. High-performance liquid chromatographic analysis, plasma protein binding and red blood cell partitioning of phenprobamate. Biopharmaceutics and Drug Disposition, 8 (1987) 341-351.
(§2) Briefly, RBC uptake is evaluated by comparison of the levels in spiked plasma (n=3) and plasma isolated from spiked whole blood (n=3). Compounds are incubated with human and mouse whole blood, respectively, for 30 minutes at 37° C. using a nominal concentration of 500 ng/ml. Following centrifugation, the plasma is removed and submitted for analysis. Each compound is also spiked into blank plasma at a nominal concentration of 500 ng/ml, and submitted for analysis. Levels in the two plasma samples (Cp′ and Cp in the equation below) and the blood hematocrit are used to determine the red blood cell to plasma ratio (Crbc/Cp). [formula] In equation 1, Cp′ is the level of drug in the spiked “blank” plasma, Cp is the level of drug in the plasma of spiked whole blood, and H is the hematocrit. The hematocrit values are determined as 0.4 for human whole blood and 0.41 for mouse whole blood. The samples are analyzed with ESI LC/MS, using positive ion detection with an internal standard.
(§3) The red blood cell to plasma ratio is determined for each compound using equation 1. Tables 6 and 7 summarize the respective mean Crbc/Cp values and standard deviations for mouse and human whole blood, respectively, in descending order based on the red blood cell to plasma ratio, where “*” denotes Positive Control, and “ND” denotes Not Determined. MDL 108552 is included as a positive control for red blood cell uptake.

[3] = Red blood cell binding (RBC to plasma ratio), human whole blood; type: in vitro ADME; details: 30 minutes at 37° C., nominal 500 ng/ml
Experimental: as §1, §2, §3

cdk4/cyclin D1 = cdk4/cyclin D1 (Homo sapiens, UniProt P11802); experiment: Cyclin-dependent kinase assay, cdk4/cyclin D1 (GST-pRb substrate); type: biochemical; details: inhibition of cyclin D1/CDK 4 enzyme activity
cdk4/cyclin D1, sequence (P11802 whole entry): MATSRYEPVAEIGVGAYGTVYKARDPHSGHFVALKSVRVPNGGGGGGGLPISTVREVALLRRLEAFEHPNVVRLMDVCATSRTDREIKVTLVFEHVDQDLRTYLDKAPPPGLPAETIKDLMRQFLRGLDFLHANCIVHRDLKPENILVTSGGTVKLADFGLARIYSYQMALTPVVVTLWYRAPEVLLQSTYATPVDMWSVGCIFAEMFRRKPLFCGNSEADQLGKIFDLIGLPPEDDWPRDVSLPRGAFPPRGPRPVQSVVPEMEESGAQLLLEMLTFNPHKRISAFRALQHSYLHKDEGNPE
cdk4/cyclin D1, sequence (P24385 whole entry partner): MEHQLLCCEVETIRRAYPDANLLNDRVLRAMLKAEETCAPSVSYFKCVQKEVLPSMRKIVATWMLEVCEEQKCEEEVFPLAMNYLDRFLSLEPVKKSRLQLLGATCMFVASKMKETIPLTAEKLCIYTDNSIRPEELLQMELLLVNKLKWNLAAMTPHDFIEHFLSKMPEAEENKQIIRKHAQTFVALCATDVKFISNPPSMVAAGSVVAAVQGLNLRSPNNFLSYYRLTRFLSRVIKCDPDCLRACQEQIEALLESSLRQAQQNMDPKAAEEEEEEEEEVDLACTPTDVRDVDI

cdk1/cyclin B = cdk1/cyclin B (Homo sapiens, UniProt P06493); experiment: Cyclin-dependent kinase assay, cdk1/cyclin B (Histone H1 substrate)
cdk1/cyclin B, sequence (P06493 whole entry): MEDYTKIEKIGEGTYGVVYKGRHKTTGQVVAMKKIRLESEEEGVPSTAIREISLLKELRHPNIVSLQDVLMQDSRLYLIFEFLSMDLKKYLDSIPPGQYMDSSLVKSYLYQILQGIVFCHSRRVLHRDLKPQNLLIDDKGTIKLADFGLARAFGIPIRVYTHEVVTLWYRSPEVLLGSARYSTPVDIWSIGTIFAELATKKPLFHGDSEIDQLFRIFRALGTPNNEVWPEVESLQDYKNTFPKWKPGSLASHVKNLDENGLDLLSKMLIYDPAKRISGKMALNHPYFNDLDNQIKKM
cdk1/cyclin B, sequence (P14635 whole entry partner): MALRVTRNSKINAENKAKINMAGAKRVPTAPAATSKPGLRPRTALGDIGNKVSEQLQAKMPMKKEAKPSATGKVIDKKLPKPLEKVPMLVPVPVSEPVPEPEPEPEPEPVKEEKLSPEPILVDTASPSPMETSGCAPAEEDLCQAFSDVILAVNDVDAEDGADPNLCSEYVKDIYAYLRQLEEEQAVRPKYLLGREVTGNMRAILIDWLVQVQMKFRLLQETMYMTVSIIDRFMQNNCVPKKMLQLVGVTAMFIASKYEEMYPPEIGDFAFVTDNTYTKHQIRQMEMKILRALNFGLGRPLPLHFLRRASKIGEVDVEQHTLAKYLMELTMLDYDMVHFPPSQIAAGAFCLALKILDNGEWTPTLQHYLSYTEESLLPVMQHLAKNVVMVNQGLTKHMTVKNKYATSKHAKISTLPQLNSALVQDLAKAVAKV
Experimental: The IC50 values for cdk1/cyclin B, cdk2/cyclin E, and cdk4/cyclin D1 inhibition are determined using the following methods:
The cdk1 sequence (accession number Y00272) is amplified by PCR and cloned into the BamHI and SalI sites of pFASTBAC1 (Life Technologies).
The cyclin B1 sequence (accession number M25753) is amplified by PCR and cloned into the BamHI and SalI sites of pFASTBAC1 (Life Technologies).
The cDNA for each of the cyclin-dependent kinases (CDK) and the corresponding cyclins are cloned into the baculovirus expression vector, pFASTBAC1 (Life Technologies). The sequences of each of the constructs are confirmed by automated fluorescent DNA sequencing according to the manufacture's protocol (Perkin Elmer/Applied Biosystems Inc).
The insect cell (Sf9) expression is optimized for each of the CDK/cyclin pairs according to the manufacturer's protocols (Life Technologies).
The viruses are added to the cells and the culture is incubated at 27° C. for the desired time. The cells are harvested by centrifugation at 3000 rpm for 10 minutes. The cells are snap frozen on dry ice and stored at −80° C.
Cell extracts are made following a standard procedure. The cell pellet is resuspended in lysis buffer (50 mM HEPES, pH 8.0, 10 mM MgCl2, 1 mM DTT, 2.5 mM EGTA, 1 mM EDTA, 10 mM β-glycerophosphate, 1 mM sodium vanadate, 1 mM sodium fluoride, 1×Protease inhibitor cocktail). The cells are lysed using the microfluidizer (Microfluidics) for 20 minutes. Cell debris is removed by centrifugation at 100,000×g. The cell extracts are aliquoted in 1 ml aliquots, frozen on dry ice, and stored at −80° C.
The kinase reactions are performed following a standard procedure. The enzyme and inhibitor are diluted in kinase buffer (50 mM HEPES, pH 8.0, 10 mM MgCl2, 2.5 mM EGTA, 10 mM β-glycerophosphate, 1 mM sodium vanadate, 1 mM sodium fluoride, and 1 mM DTT) and pre-incubated for 30 minutes. […] The cdk1 enzyme activity is assayed using Histone H1 (Sigma) in the presence of 10 μM ATP for 30 min at room temperature. The reactions are terminated by the addition of 50 μL of 10 mM cold ATP to stop the reactions. The reactions are transferred to a pre-soaked 96-well multi-screen plate containing 30 μL of 100% TCA per well. After incubation for one hour at room temperature, the plates are washed twice with 200 μl of 20% TCA, followed by 200 μl of 10% TCA and finally with 200 μl of 5% TCA. After drying the plates at room temperature, the filter plates are placed in adapter plates (Packard) and 40 μl of Microscint-O® (Packard) is added to each well. Top Seal A film is used to cover the plates before counting in a Top Count Scintillation Counter.
The % remained activity of the indicated Cdk/cyclin kinase complex in the presence of inhibitor is calculated by the ratio of cpm in the presence of inhibitor to cpm in the absence of inhibitor (% Activity=vi/vo×100%).

[4] = 24 h, BLQ = below assay quantification limit (approx. 1 ng/ml)
[5] = Cassette #4, single 15 mg/kg iv cassette dose (3 mg/kg/compound), 8 h
[6] = Cassette #4, single 15 mg/kg iv cassette dose (3 mg/kg/compound), 24 h
[7] = Cassette #3, single 15 mg/kg iv cassette dose (3 mg/kg/compound), 24 h
[8] = Cassette #2, single 18 mg/kg iv cassette dose (3 mg/kg/compound), 24 h

For `COC(=O)c1ccccc1S(=O)(=O)N1CCC(Nc2nc(N[C@H]3CC[C@H](N)CC3)nc3c2ncn3C2CCCC2)CC1.Cl.Cl` [Compound 111, trans-2-{4-[2-(4-Amino-cyclohexylamino)-9-cyclopentyl-9H-purin-6-ylamino]-piperidine-1-sulfonyl}-benzoic acid methyl ester dihydrochloride], the “Mean concentration in plasma” value [1, 4] was “BLQ”, the “Mean Red Blood Cell to Plasma Ratio” value ([2]; hematocrit 0.41) was 2.2 and the “Mean Red Blood Cell to Plasma Ratio” value [3] was 1.2.
For `Cl.Cl.N[C@H]1CC[C@H](Nc2nc(NC3CCN(S(=O)(=O)c4ccc(F)cc4)CC3)c3ncn(C4CCCC4)c3n2)CC1` [Compound 106, trans-N^2-(4-Amino-cyclohexyl)-9-cyclopentyl-N^6-[1-(4-fluoro-benzenesulfonyl)-piperidin-4-yl]-9H-purine-2,6-diamine dihydrochloride], the “Mean Conc. in plasma” value [1, 5] was “BLQ^a”, the “Mean Conc. in plasma” value [1, 6] was “BLQ” and the “Mean Red Blood Cell to Plasma Ratio” value ([2]; hematocrit 0.41) was 3.0. For the same compound, the “Mean Red Blood Cell to Plasma Ratio” value [3] was 3.9.
`N[C@H]1CC[C@H](Nc2nc(NC3CCN(S(=O)(=O)c4cccs4)CC3)c3ncn(C4CCCC4)c3n2)CC1` [Compound 128, trans-N^2&-(4-Amino-cyclohexyl)-9-cyclopentyl-N^6-[1-(thiophene-2-sulfonyl)-piperidin-4-yl]-9H-purine-2,6-diamine dihydrochloride] showed an IC50 (cdk4/cyclin D1) of 5 nM and an IC50 (cdk1/cyclin B) of 9 nM.
In the case of `Cl.Cl.N[C@H]1CC[C@H](Nc2nc(NC3CCN(C(=O)Oc4ccc([N+](=O)[O-])cc4)CC3)c3ncn(C4CCCC4)c3n2)CC1` [Compound 89, trans-4-[2-(4-Amino-cyclohexylamino)-9-cyclopentyl-9H-purin-6-ylamino]-piperidine-1-carboxylic acid 4-nitro-phenyl ester dihydrochloride], the “Mean Conc. in plasma” value ([1]; Cassette #4, single 15 mg/kg iv cassette dose (3 mg/kg/compound), 0.083 h) is reported as 642.0 ± 49.5 ng/mL, the “Mean Conc. in plasma” value ([1]; Cassette #4, single 15 mg/kg iv cassette dose (3 mg/kg/compound), 0.25 h) is reported as 303.3 ± 34.3 ng/mL and the “Mean Conc. in plasma” value ([1]; Cassette #4, single 15 mg/kg iv cassette dose (3 mg/kg/compound), 0.5 h) is reported as 142.4 ± 2.7 ng/mL. The “Mean Conc. in plasma” value ([1]; Cassette #4, single 15 mg/kg iv cassette dose (3 mg/kg/compound), 1 h) was 52.4 ± 4.2 ng/mL, the “Mean Conc. in plasma” value ([1]; Cassette #4, single 15 mg/kg iv cassette dose (3 mg/kg/compound), 3 h) was 17.0 ± 4.7 ng/mL and the “Mean Conc. in plasma” value ([1]; Cassette #4, single 15 mg/kg iv cassette dose (3 mg/kg/compound), 6 h) was 3.7 ± 1.0 ng/mL. The “Mean Conc. in plasma” value [1, 5] was 3.8 ± 0.5 ng/mL, the “Mean Conc. in plasma” value [1, 6] was “BLQ” and the “Mean Red Blood Cell to Plasma Ratio” value ([2]; hematocrit 0.41) was 4.7. For the same compound, the “Mean Red Blood Cell to Plasma Ratio” value [3] was 4.2.
`N[C@H]1CC[C@H](Nc2nc(NC3CCN(C(=O)/C=C/c4cccc(C(F)(F)F)c4)CC3)c3ncn(C4CCCC4)c3n2)CC1` [Compound 44, trans-(E)-1-{4-[2-(4-Amino-cyclohexylamino)-9-cyclopentyl-9H-purin-6-ylamino]-piperidin-1-yl}-3-(3-trifluoromethyl-phenyl)-propenone dihydrochloride] gave an IC50 (cdk4/cyclin D1) of 1490 nM and an IC50 (cdk1/cyclin B) of 129 nM.
Work on `NC1CCC(Nc2nc(NC3CCN(C(=O)[C@@H]4C[C@H]4c4ccccc4)CC3)c3ncn(C4CCCC4)c3n2)CC1` (mixture of isomers) [Compound 43, (±)-trans-1-{4-[2-(4-Amino-cyclohexylamino)-9-cyclopentyl-9H-purin-6-ylamino]-piperidin-1-yl}-1-(2-phenyl-cyclopropyl)-methanone dihydrochloride] yielded an IC50 (cdk4/cyclin D1) of 293 nM and an IC50 (cdk1/cyclin B) of 51 nM.
For `Cl.Cl.N#Cc1ccc(S(=O)(=O)N2CCC(Nc3nc(N[C@H]4CC[C@H](N)CC4)nc4c3ncn4C3CCCC3)CC2)cc1` [Compound 109, trans-N^2-(4-Amino-cyclohexyl)-9-cyclopentyl-N^6-[1-(4-cyano-benzenesulfonyl)-piperidin-4-yl]-9H-purine-2,6-diamine dihydrochloride], the “Mean concentration in plasma” value [1, 4] was “BLQ”, the “Mean Red Blood Cell to Plasma Ratio” value ([2]; hematocrit 0.41) was 2.4 and the “Mean Red Blood Cell to Plasma Ratio” value [3] was 5.0.
With `Cl.Cl.N[C@H]1CC[C@H](Nc2nc(NC3CCN(C(=O)Nc4ccc(C(F)(F)F)cc4)CC3)c3ncn(C4CCCC4)c3n2)CC1` [Compound 149, trans-4-[2-(4-Amino-cyclohexylamino)-9-cyclopentyl-9H-purin-6-ylamino]-piperidine-1-carboxylic acid (4-trifluoromethyl-phenyl)-amide dihydrochloride] the “Mean Conc. in plasma” value [1, 7] was “BLQ”, the “Mean Red Blood Cell to Plasma Ratio” value ([2]; hematocrit 0.41) was 3.4 and the “Mean Red Blood Cell to Plasma Ratio” value [3] was 2.8.
For `Cl.Cl.N[C@H]1CC[C@H](Nc2nc(NC3CCN(S(=O)(=O)c4cccc(C(F)(F)F)c4)CC3)c3ncn(C4CCCC4)c3n2)CC1` [Compound 112, trans-N^2-(4-Amino-cyclohexyl)-9-cyclopentyl-N^6-[1-(3-trifluoromethyl-benzenesulfonyl)-piperidin-4-yl]-9H-purine-2,6-diamine dihydrochloride], the “Mean Conc. in plasma” value [1, 7] was “BLQ”, the “Mean Red Blood Cell to Plasma Ratio” value ([2]; hematocrit 0.41) was 2.4 and the “Mean Red Blood Cell to Plasma Ratio” value [3] was 3.7.
For `Cl.Cl.N[C@H]1CC[C@H](Nc2nc(NC3CCN(C(=O)Oc4ccc(Br)cc4)CC3)c3ncn(C4CCCC4)c3n2)CC1` [Compound 81, trans-4-[2-(4-Amino-cyclohexylamino)-9-cyclopentyl-9H-purin-6-ylamino]-piperidine-1-carboxylic acid 4-bromo-phenyl ester dihydrochloride], the “Mean Conc. in plasma” value [1, 8] was “BLQ”, the “Mean Red Blood Cell to Plasma Ratio” value ([2]; hematocrit 0.41, dihydrochloride) was 4.5 and 3.3 and the “Mean Red Blood Cell to Plasma Ratio” value [3] was 5.3.
Work on `C=CCCOC(=O)N1CCC(Nc2nc(N[C@H]3CC[C@H](N)CC3)nc3c2ncn3C2CCCC2)CC1` [Compound 100, trans-4-[2-(4-Amino-cyclohexylamino)-9-cyclopentyl-9H-purin-6-ylamino]-piperidine-1-carboxylic acid but-3-enyl ester dihydrochloride] yielded an IC50 (cdk4/cyclin D1) of over 10000 nM.
In the case of `Cl.Cl.N[C@H]1CC[C@H](Nc2nc(NC3CCN(C(=O)c4cccc(C(F)(F)F)c4F)CC3)c3ncn(C4CCCC4)c3n2)CC1` [Compound 12, trans-1-{4-[2-(4-Amino-cyclohexylamino)-9-cyclopentyl-9H-purin-6-ylamino]-piperidin-1-yl}-1-(2-fluoro-3-trifluoromethyl-phenyl)-methanone dihydrochloride], the “Mean concentration in plasma” value [1, 4] is reported as “BLQ”, the “Mean Red Blood Cell to Plasma Ratio” value ([2]; hematocrit 0.41) is reported as 1.9 and the “Mean Red Blood Cell to Plasma Ratio” value [3] is reported as 3.6.
In the case of `COc1ccc(OC(=O)N2CCC(Nc3nc(N[C@H]4CC[C@H](N)CC4)nc4c3ncn4C3CCCC3)CC2)cc1.Cl.Cl` [Compound 84, trans-4-[2-(4-Amino-cyclohexylamino)-9-cyclopentyl-9H-purin-6-ylamino]-piperidine-1-carboxylic acid 4-methoxy-phenyl ester dihydrochloride], the “Mean Conc. in plasma” value [1, 8] is reported as “BLQ”, the “Mean Red Blood Cell to Plasma Ratio” value ([2]; hematocrit 0.41) is reported as 3.5 and the “Mean Red Blood Cell to Plasma Ratio” value [3] is reported as 2.0.
With `COc1cc(COC(=O)N2CCC(Nc3nc(N[C@H]4CC[C@H](N)CC4)nc4c3ncn4C3CCCC3)CC2)c([N+](=O)[O-])cc1OC` [Compound 101, trans-4-[2-(4-Amino-cyclohexylamino)-9-cyclopentyl-9H-purin-6-ylamino]-piperidine-1-carboxylic acid 4,5-dimethoxy-2-nitro-benzyl ester dihydrochloride] the IC50 (cdk4/cyclin D1) was over 10000 nM.
With `Cl.Cl.N[C@H]1CC[C@H](Nc2nc(NC3CCN(C(=O)Oc4ccccc4)CC3)c3ncn(C4CCCC4)c3n2)CC1` [Compound 85, trans-4-[2-(4-Amino-cyclohexylamino)-9-cyclopentyl-9H-purin-6-ylamino]-piperidine-1-carboxylic acid phenyl ester dihydrochloride] the “Mean concentration in plasma” value ([1]; 0.083 h) was 843.3 ± 124.5 ng/mL, the “Mean concentration in plasma” value ([1]; 0.25 h) was 341.6 ± 45.1 ng/mL and the “Mean concentration in plasma” value ([1]; 0.5 h) was 163.8 ± 15.7 ng/mL. For the same compound, the “Mean concentration in plasma” value ([1]; 1 h) was 89.0 ± 21.5 ng/mL, the “Mean concentration in plasma” value ([1]; 3 h) was 14.3 ± 7.1 ng/mL and the “Mean concentration in plasma” value ([1]; 6 h) was 5.2 ± 1.9 ng/mL. For the same compound, the “Mean concentration in plasma” value ([1]; 8 h) was 3.2 ng/mL, the “Mean concentration in plasma” value [1, 4] was “BLQ” and the “Mean Red Blood Cell to Plasma Ratio” value ([2]; hematocrit 0.41) was 6.1. For the same compound, the “Mean Red Blood Cell to Plasma Ratio” value [3] was 7.1.
